Results as given in ChEMBL document CHEMBL1201862, “PubChem BioAssay data set” (2004).
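Growth conditions: 96-well plates. Treatment: test compound, 48 hours, 5 concentrations. Analysis: linear interpolation between bracketing concentrations; unreached endpoints set to highest concentration. GI50 is the concentration that inhibits growth by half.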 Activity calls are given as the source filed them. No stated cut-off is given here; in the data, active = GI50 up to about 1.1 µM and inactive = higher.

Key:
Assay in all cases: NCI tumour cell line growth inhibition, 48 h
SNB-75 = tested on: SNB-75
HCC 2998 = tested on: HCC 2998
COLO 205 = tested on: COLO 205
OVCAR-4 = tested on: OVCAR-4
K562 = tested on: K562
HT-29 = tested on: HT-29
UO-31 = tested on: UO-31
NCI-H226 = tested on: NCI-H226
SNB-19 = tested on: SNB-19
TK-10 = tested on: TK-10
SR = tested on: SR
ACHN = tested on: ACHN
UACC-257 = tested on: UACC-257
RPMI-8226 = tested on: RPMI-8226
HOP-92 = tested on: HOP-92
SN12C = tested on: SN12C
HOP-62 = tested on: HOP-62
SF-268 = tested on: SF-268
DU-145 = tested on: DU-145
HL-60 = tested on: HL-60
HCT-116 = tested on: HCT-116
UACC-62 = tested on: UACC-62
NCI-H460 = tested on: NCI-H460
MDA-MB-435 = tested on: MDA-MB-435
MOLT-4 = tested on: MOLT-4
IGROV-1 = tested on: IGROV-1
786-0 = tested on: 786-0
M14 = tested on: M14
EKVX = tested on: EKVX
SK-OV-3 = tested on: SK-OV-3
NCI-H23 = tested on: NCI-H23
CCRF-CEM = tested on: CCRF-CEM
KM12 = tested on: KM12
U-251 = tested on: U-251
SK-MEL-28 = tested on: SK-MEL-28
OVCAR-5 = tested on: OVCAR-5
SF-295 = tested on: SF-295
SK-MEL-5 = tested on: SK-MEL-5
MCF7 = tested on: MCF7
HCT-15 = tested on: HCT-15
Malme-3M = tested on: Malme-3M
OVCAR-8 = tested on: OVCAR-8
A549 = tested on: A549
NCI/ADR-RES = tested on: NCI/ADR-RES
SW-620 = tested on: SW-620
LOX IMVI = tested on: LOX IMVI
A498 = tested on: A498
T47D = tested on: T47D
RXF 393 = tested on: RXF 393
SF-539 = tested on: SF-539
MDA-MB-231 = tested on: MDA-MB-231
CAKI-1 = tested on: CAKI-1
NCI-H522 = tested on: NCI-H522
SK-MEL-2 = tested on: SK-MEL-2
Hs-578T = tested on: Hs-578T
PC-3 = tested on: PC-3
OVCAR-3 = tested on: OVCAR-3

## O=C1NC2(CCN(CCCC3(c4ccc(F)cc4)OCCO3)CC2)Oc2ccccc21
SNB-75
  GI50: 43.1 µM (inactive)
HCC 2998
  GI50: > 100 µM (inactive)
COLO 205
  GI50: 86.7 µM (inactive)
OVCAR-4
  GI50: > 100 µM (inactive)
K562
  GI50: 64.4 µM (inactive)
HT-29
  GI50: 42.4 µM (inactive)
UO-31
  GI50: 12.7 µM (inactive)
NCI-H226
  GI50: > 100 µM (inactive)
SNB-19
  GI50: > 100 µM (inactive)
TK-10
  GI50: > 100 µM (inactive)
SR
  GI50: 39.7 µM (inactive)
ACHN
  GI50: > 100 µM (inactive)
UACC-257
  GI50: 57.3 µM (inactive)
RPMI-8226
  GI50: 61 µM (inactive)
HOP-92
  GI50: 23.7 µM (inactive)
SN12C
  GI50: > 100 µM (inactive)
HOP-62
  GI50: > 100 µM (inactive)
SF-268
  GI50: > 100 µM (inactive)
DU-145
  GI50: > 100 µM (inactive)
HL-60
  GI50: 42.7 µM (inactive)
HCT-116
  GI50: > 100 µM (inactive)
UACC-62
  GI50: > 100 µM (inactive)
NCI-H460
  GI50: 91.2 µM (inactive)
MDA-MB-435
  GI50: > 100 µM (inactive)
MOLT-4
  GI50: 51.8 µM (inactive)
IGROV-1
  GI50: > 100 µM (inactive)
786-0
  GI50: > 100 µM (inactive)
M14
  GI50: 73.5 µM (inactive)
EKVX
  GI50: 39.4 µM (inactive)
SK-OV-3
  GI50: > 100 µM (inactive)
NCI-H23
  GI50: > 100 µM (inactive)
CCRF-CEM
  GI50: > 100 µM (inactive)
KM12
  GI50: > 100 µM (inactive)
U-251
  GI50: > 100 µM (inactive)
SK-MEL-28
  GI50: > 100 µM (inactive)
OVCAR-5
  GI50: > 100 µM (inactive)
SF-295
  GI50: > 100 µM (inactive)
SK-MEL-5
  GI50: 69.5 µM (inactive)
MCF7
  GI50: 86.7 µM (inactive)
HCT-15
  GI50: 71.4 µM
Malme-3M
  GI50: > 100 µM (inactive)
OVCAR-8
  GI50: > 100 µM (inactive)
A549
  GI50: > 100 µM (inactive)
NCI/ADR-RES
  GI50: 97.9 µM (inactive)
SW-620
  GI50: > 100 µM (inactive)
LOX IMVI
  GI50: > 100 µM (inactive)
A498
  GI50: 21.3 µM (inactive)
T47D
  GI50: 35.8 µM (inactive)
RXF 393
  GI50: > 100 µM (inactive)
SF-539
  GI50: 42.9 µM (inactive)
MDA-MB-231
  GI50: > 100 µM (inactive)

## CCSc1nc(N/N=C/c2cccs2)c2cnn(CO)c2n1
SNB-75
  GI50: 14.2 µM (inactive)
CAKI-1
  GI50: 2.66 µM (inactive)
COLO 205
  GI50: 4.73 µM (inactive)
NCI-H522
  GI50: 3.71 µM (inactive)
OVCAR-4
  GI50: 23.6 µM (inactive)
K562
  GI50: 4.13 µM (inactive)
HT-29
  GI50: 3.85 µM (inactive)
UO-31
  GI50: 2.81 µM (inactive)
NCI-H226
  GI50: 3.1 µM (inactive)
SNB-19
  GI50: 10.8 µM (inactive)
TK-10
  GI50: 6.14 µM (inactive)
SR
  GI50: 5.9 µM (inactive)
ACHN
  GI50: 6.07 µM (inactive)
UACC-257
  GI50: 11.6 µM (inactive)
HOP-92
  GI50: 16.9 µM (inactive)
SN12C
  GI50: 6.44 µM (inactive)
HOP-62
  GI50: 4.25 µM (inactive)
SK-MEL-2
  GI50: 10.6 µM (inactive)
SF-268
  GI50: 6.22 µM (inactive)
DU-145
  GI50: 10.3 µM (inactive)
HL-60
  GI50: 5.15 µM (inactive)
HCT-116
  GI50: 5.01 µM (inactive)
UACC-62
  GI50: 10.4 µM (inactive)
NCI-H460
  GI50: 5.11 µM (inactive)
MDA-MB-435
  GI50: 6.25 µM (inactive)
IGROV-1
  GI50: 2.61 µM (inactive)
786-0
  GI50: 0.0614 µM (active)
M14
  GI50: 6.11 µM (inactive)
EKVX
  GI50: 9.08 µM (inactive)
SK-OV-3
  GI50: 14.6 µM (inactive)
NCI-H23
  GI50: 7.05 µM (inactive)
KM12
  GI50: 0.408 µM (active)
U-251
  GI50: 6.85 µM (inactive)
SK-MEL-28
  GI50: 14.9 µM (inactive)
OVCAR-5
  GI50: 13.4 µM (inactive)
SF-295
  GI50: 8.13 µM (inactive)
SK-MEL-5
  GI50: 3.46 µM (inactive)
MCF7
  GI50: 3.59 µM (inactive)
HCT-15
  GI50: 4.88 µM
Malme-3M
  GI50: 13.8 µM (inactive)
Hs-578T
  GI50: 4.31 µM (inactive)
OVCAR-8
  GI50: 4.16 µM (inactive)
A549
  GI50: 7 µM (inactive)
NCI/ADR-RES
  GI50: 3.91 µM (inactive)
SW-620
  GI50: 4.42 µM (inactive)
A498
  GI50: 2.18 µM (inactive)
T47D
  GI50: 3.8 µM (inactive)
RXF 393
  GI50: 3.66 µM (inactive)
PC-3
  GI50: 6.58 µM (inactive)
SF-539
  GI50: 10.5 µM (inactive)
OVCAR-3
  GI50: 5.86 µM (inactive)
MDA-MB-231
  GI50: 18.3 µM (inactive)
